The record followed here is PMC9388626, “STUB1 is an intracellular checkpoint for interferon gamma sensing” (Scientific Reports, 2022).

For series [1], the system named is PC-3 cells. The series can be described thus: Growth inhibition, CellTiter-Fluor (live-cell protease activity). The class given is cell-based, human. Further details: scale not given here. The note with it: 10 ng ml-1 each, 6-day. The procedure: (§1) Parental and CRISPR-edited tumour cells were seeded in a cell density of 1800 (DU145), 2000 (PC-3), or 10,000 (MCF7) per well in 96-well CellCarrier plate (PelkinElmer, #6005550) filled with 50 µl culture media + 10% FBS. After 20–24 h incubation, the cells were treated with 10 ng ml^−1 of recombinant human IFNγ (R&D Systems, 285-IF-100), 10 ng ml^−1 of recombinant human TNFα (R&D Systems, 210-TA-020/CF) or a combination of both, by adding an equal volume of the complete culture media containing the cytokines. After incubating for 6 days without media change, the CellTiter-Glo 2.0 (Promega, G9243) or CellTiter-Fluor (Promega, G6082) assay were performed according to manufacturer’ instructions. The luminescence or fluorescence (Ex: 380–400 nm, Em: 505 nm) were detected by Inifinte M1000 PRO (Tecan). For CellTiter-Fluor, triplicate wells without cells were included to determine background fluorescence and the signal average was used for background substraction.

In series [2] the test system is DU145 cells. Described as above. It counts as cell-based, human. Further details: scale not given here. The settings on record: 10 ng ml-1 each, 6-day. On the procedure:
as §1

Series [3] has as its system B16-F10 cells. Description: Proteomics by mass spectrometry. It counts as cell-based, murine. The procedure: After overnight incubation, the culture media were replaced with fresh media (DMEM + 10% FBS) supplemented with 0.03 ng ml^−1 of recombinant mouse IFNγ (R&D Systems, #485-MI-100). After 24 h treatment, the cells were trypsinized, collected and washed twice with 0.5 ml PBS. The cell pellets collected from three independent experiments on separate day were lysed in 100 µl of lysis buffer containing 4% sodium dodecyl sulfate, 50 mM Tris–HCl pH 7.5, 50 µg ml^−1 of DNase (Roche, #10104159001), 50 µg ml^−1 of RNase (Roche, #10109169001) and Halt protease inhibitor cocktail (Thermo Scientific, #78430) on ice for 30 min followed by 65 °C for 30 min. Lysates were clarified by centrifugation at 16,000 g at 10 °C for 30 min. Protein content was re-extracted from the pellet with 50 µl of lysis buffer, sonicated with a single burst using a probe sonicator and heated at 95 °C for 10 min before centrifugation at 16,000 g at 10 °C for 15 min. Lysates from first and second extractions were pooled. Protein concentration was determined using BCA protein assay kit (Pierce, # 23225). Detergent removal and protein digestion were performed in centrifugal suspension trap columns (Protifi, C02-micro) according to the manufacturer’s instructions. Briefly, 80 µg protein extract from each sample was reduced with 50 mM dithiothreitol (Sigma, #43815) at 95 °C for 10 min and then alkylated with 100 mM iodoacetamide (Sigma, I2512) in the dark at ambient temperature for 30 min. The samples were acidified with 1.2% of phosphoric acid and mixed well with washing buffer consisting of 90% methanol and 100 mM ammonium bicarbonate. The samples were transferred to the suspension trap columns and centrifuged at 4000 g for 30 s. The columns were washed 3 times with washing buffer. Proteins trapped in the suspension bed were digested in 50 mM ammonium bicarbonate with trypsin and endoproteinase Lys-C (Promega, V5073) at enzyme to protein ratio 1:25 in a 47 °C waterbath for 2 h. Peptides were eluted firstly with 50 mM ammonium bicarbonate, then with 0.2% formic acid and lastly with 50% acetonitrile and 0.2% formic acid. The eluates were pooled and vacuum dried completely. Dried peptides were reconstituted with 0.1% formic acid in water, followed by injecting 4 µg for mass spectrometry analysis. Peptides were loaded on a reverse phase EASY-Spray column (50 cm × 75 μm inner diameter) operated using Easy-nLC 1200 (Thermo Fisher Scientific) coupled online to a Q-Exactive HF-X mass spectrometer (Thermo Fisher Scientific). Peptides were separated using a 120 min linear gradient at a flow rate of 300 nL min^−1. The Q-Exactive was operated in ‘top-10’ data-dependent acquisition (DDA) mode with full scan acquired at a resolution of 120,000 (scan range 200–1800 m/z) with an automatic gain control (AGC) target of 3e6. The top ten most abundant ions from the full scan were isolated with an isolation width of 0.7 m/z and fragmented by higher energy collisional dissociation (HCD) with normalized collision energy (NCE) of 27. MS/MS scan was acquired at a resolution of 30,000 with an AGC target of 1e5. The default charge state was set at 2 and dynamic exclusion was enabled for 10 s. Maximum ion injection time for full scan and MS/MS scan were 100 ms and 105 ms respectively.
DDA raw files were processed with Proteome Discoverer 2.4 using Sequest HT search engine where mass spectrometric data was searched against SwissProt TaxID 10090 mouse database (v2017-10-25). Percolator was used to validate search results based on the concatenated mode where only the best scoring PSMs (target/decoy) were considered. Trypsin was specified as the enzyme, cleaving after all lysine and arginine residues and allowing up to two missed cleavages. Carbamidomethylation of cysteines was set as fixed modification while variable modifications included oxidation of methionine, acetylation of N-terminus, N-terminal loss of methionine and N-terminal loss of metionine along with the addition of an acetyl group. […]

Consider IFNγ, for which the “FC in live-cell protease activity relative to parental cells” value in series [1] (PC-3 PTPN2 sgRNA, replicate 1) is -0.90; in series [1] (PC-3 PTPN2 sgRNA, replicate 2), -0.39; in series [1] (PC-3 PTPN2 sgRNA, replicate 3), -0.44; in series [1] (PC-3 Parental, replicate 1), 0.02; in series [1] (PC-3 Parental, replicate 2), -0.11; in series [1] (PC-3 Parental, replicate 3) it was 0.09. Further, the “FC in live-cell protease activity relative to parental cells” value in series [1] (PC-3 STUB1 sgRNA, replicate 1) is given as -0.57; in series [1] (PC-3 STUB1 sgRNA, replicate 2) it was -0.73; in series [1] (PC-3 STUB1 sgRNA, replicate 3) it was -0.72; in series [1] (PC-3 control sgRNA, replicate 1), 0.0759; in series [1] (PC-3 control sgRNA, replicate 2), -0.0157; in series [1] (PC-3 control sgRNA, replicate 3), -0.15. Further, the “FC in live-cell protease activity relative to parental cells” value is -0.09 in series [2] (DU145 PTPN2 sgRNA, replicate 1); -0.0242 in series [2] (DU145 PTPN2 sgRNA, replicate 2); 0.13 in series [2] (DU145 PTPN2 sgRNA, replicate 3); -0.028 in series [2] (DU145 Parental, replicate 1); -0.0441 in series [2] (DU145 Parental, replicate 2); 0.07 in series [2] (DU145 Parental, replicate 3). Further, the “FC in live-cell protease activity relative to parental cells” value in series [2] (DU145 STUB1 sgRNA, replicate 1) is -0.68; in series [2] (DU145 STUB1 sgRNA, replicate 2), -0.65; in series [2] (DU145 STUB1 sgRNA, replicate 3) it was -0.52; in series [2] (DU145 control sgRNA, replicate 1), 0.0364; in series [2] (DU145 control sgRNA, replicate 2) it was 0.13; in series [2] (DU145 control sgRNA, replicate 3), 0.0663.
With “gStub1 #1 (guide GCATTGCTAAGAAGAAGCGC; chemistry not given here)”, the “Log2(FC)” value in series [3] (B2M (Fig. 2g)) was 2.591; in series [3] (BST2 (Fig. 2g)), 2.607; in series [3] (ERAP1 (Fig. 2g)), 2.501; in series [3] (GBP2 (Fig. 2g)) it was 4.916; in series [3] (H2-D1 (Fig. 2g)), 1.708; in series [3] (IFI35 (Fig. 2g)), 2.548. For the same substance, the “Log2(FC)” value in series [3] (IRGM1 (Fig. 2g)) was found to be 4.787; in series [3] (MOV10 (Fig. 2g)) it was 1.934; in series [3] (PSME1 (Fig. 2g)) it was 1.818; in series [3] (PSME2 (Fig. 2g)), 2.036; in series [3] (STAT1 (Fig. 2g)) it was 2.521; in series [3] (STAT3 (Fig. 2g)), 1.035. Further, the “Log2(FC)” value in series [3] (TGTP1/TGTP2 (Fig. 2g)) amounted to 7.1.
